Data from US20250152576A1, “INJECTABLE FORMULATION COMPRISING ISOXAZOLINE DERIVATIVE AND METHOD FOR PREPARING SAME” (LG CHEM, LTD., priority 2022, published 2025).

Experiments:
[1] = Change in API purity during preparation of freeze-drying formulation, UPLC; format: physicochemical; details: API powder before dissolving in the solvent composition
Procedure: A final API freeze-drying formulation was prepared as described in Table 16 below.
In order to confirm the change in purity of the API during the preparation of the final API freeze-drying formulation, the purity of the API powder before dissolving in the solvent composition, and the API purity during the preparation of the API mixture solution and after freeze-drying were measured using UPLC.

[2] = Solubility of compound of Formula 1 in water and solvents of various compositions; format: physicochemical
From the text: Further, it was confirmed that the compound of Formula 1 has the property of reducing the pH of a solution while being dissolved in a solvent.

Purity (%) [1]: 98.6%
solubility in acidic solvents ([2]; acidic solvents of pH 4 or less containing phosphate buffer, solubilizing agent and pH adjusting agent): hardly soluble
solubility in water ([2]; water): poorly soluble in water
solubility in weak acidic and basic solvents ([2]; weak acidic solvents of pH 6 or more and basic solvents of pH 7.5 or more): dissolved well
SMILES: CC(C)[C@@]1(C(=O)N[C@H]2CC(=O)O[C@]2(O)CF)CC(c2nccc3ccccc23)=NO1 [Compound of Formula 1, (R)-N-((2S,3S)-2-(fluoromethyl)-2-hydroxy-5-oxotetrahydrofuran-3-yl)-5-isopropyl-3-(isoquinolin-1-yl)-4,5-dihydroisoxazol-5-carboxamide]
